Consider 15 compounds from patent US20230142338A1, “THIOPHENYL DERIVATIVES USEFUL FOR MODULATING NUCLEIC ACID SPLICING” (REMIX THERAPEUTICS INC., priority 2020, published 2023).

Format in all cases: cell-based
For experiment [1], the system named is HTT AJ mRNA. Briefly: Splicing assay (RT-qPCR): increase in HTT alternative junction (AJ) mRNA. The following applies: A673 or K562 cells, 24 hours treatment; concentration having 50% response in AJ mRNA increase. The procedure:
(§1) Compounds described herein were used to modulate RNA transcript abundance in cells. The expression of a target mRNA was measured by detecting the formation of an exon-exon junction in the canonical transcript (CJ). A compound mediated exon-inclusion event was detected by observing an increase in formation of a new junction with an alternative exon (AJ). Real-time qPCR assays were used to detect these splicing switches and interrogate the potency of various compounds towards different target genes. A high-throughput real time quantitative PCR (RT-qPCR) assay was developed to measure these two isoforms of the mRNA (CJ and AJ) for an exemplary gene, HTT, together with a control housekeeping gene, GAPDH or GUSB or PPIA, used for normalization. Briefly, the A673 or K562 cell line was treated with various compounds described herein (e.g., compounds of Formula (I)). After treatment, the levels of the HTT mRNA targets were determined from each sample of cell lysate by cDNA synthesis followed by qPCR.
(§2) The A673 cell line was cultured in DMEM with 10% FBS. Cells were diluted with full growth media and plated in a 96-well plate (15,000 cells in 100 ul media per well). The plate was incubated at 37° C. with 5% CO2 for 24 hours to allow cells to adhere. An 11-point 3-fold serial dilution of the compounds was made in DMSO then diluted in media in an intermediate plate. Compounds were transferred from the intermediate plate to the cell plate with the top dose at a final concentration of 10 uM in the well. Final DMSO concentration was kept at or below 0.25%. The cell plate was returned to the incubator at 37° C. with 5% CO2 for an additional 24 hours.
(§3) The K562 cell line was cultured in IMDM with 10% FBS. For K562, cells were diluted with full growth media and plated in either a 96-well plate (50,000 cells in 50 uL media per well) or a 384-well plate (8,000-40,000 cells in 45 uL media per well). An 11-point 3-fold serial dilution of the compounds were made in DMSO then diluted in media in an intermediate plate. Compound was transferred from the intermediate plate to the cell plate with the top dose at a final concentration of 10 uM in the well. Final DMSO concentration was kept at or below 0.25%. Final volume was 100 uL for 96-well plate and 50 uL for 384-well plate. The cell plate was then placed in an incubator at 37° C. with 5% CO2 for 24 hours.
(§4) The cells were then gently washed with 50 uL-100 uL cold PBS before proceeding to addition of lysis buffer. 30 uL-50 uL of room temperature lysis buffer with DNAse I (and optionally RNAsin) was added to each well. Cells were shaken/mixed thoroughly at room temperature for 5-10 minutes for lysis to take place and then 3 uL-5 uL of room temperature stop solution was added and wells were shaken/mixed again. After 2-5 minutes, the cell lysate plate was transferred to ice for RT-qPCR reaction setup. The lysates could also be frozen at −80° C. for later use.
(§5) In some cases, a direct lysis buffer was used. An appropriate volume of 3× lysis buffer (10 mM Tris, 150 mM NaCl, 1.5%-2.5% Igepal and 0.1-1 U/uL RNAsin, pH 7.4) was directly added to either K562 or A673 cells in media and mixed by pipetting 3 times. The plates were then incubated at room temperature with shaking/rocking for 20-50 minutes to allow for lysis to take place. After this time, the cell lysate plate was transferred to ice to set up for the RT-qPCR reactions. The lysates could also be frozen at −80° C. for later use.
(§6) To set up 10 uL RT-qPCR reactions, cell lysates were transferred to 384-well qPCR plates containing the master mix according to the table below. The plates were sealed, gently vortexed, and spun down before the run. The volumes were adjusted accordingly in some instances where the reaction was carried in 20 uL. The table below summarizes the components of the RT-qPCR reactions:
(§7) The RT-qPCR reaction was performed using a QuantStudio (ThermoFisher) under the following fast cycling conditions. […]
On the technique in general: In qPCR the cycle at which signal appears reflects the starting amount.

The test system of experiment [2] is HTT CJ mRNA. Description: Splicing assay (RT-qPCR): decrease in HTT canonical junction (CJ) mRNA. The following applies: A673 or K562 cells, 24 hours treatment; concentration having 50% response in CJ mRNA decrease. The procedure: as §1, §2, §3, §4, §5, §6, §7
Experiment [3] has as its system HTT CJ mRNA. Briefly: Gene panel canonical junction qPCR assay: HTT. The following applies: Table 3, concentration having 50% response in CJ decrease, read-out: HTT IC50 (decrease in CJ mRNA levels). The procedure: as §1, §2, §3, §4, §5, §6, §7
Experiment [4] concerns SMN2 CJ mRNA. Briefly: Gene panel canonical junction qPCR assay: SMN2. The note with it: Table 3, concentration having 50% response in CJ decrease, read-out: SMN2 IC50 (decrease in CJ mRNA levels). The procedure: as §1, §2, §3, §4, §5, §6, §7
The test system of experiment [5] is Target C CJ mRNA. Description: Gene panel canonical junction qPCR assay: Target C. The note with it: Table 3, concentration having 50% response in CJ decrease, read-out: Target C IC50 (decrease in CJ mRNA levels). The procedure: as §1, §2, §3, §4, §5, §6, §7

Molecules are shown by their SMILES.

For the compound `Cc1cn2cc(NC(=O)c3sc(N4CCC(N5CCCC5)C4)cc3F)cc(F)c2n1` (stereo not drawn) [Compound 136, 5-[[1,3′-bipyrrolidin]-1′-yl]-3-fluoro-N-[8-fluoro-2-methylimidazo[1,2-a]pyridin-6-yl]thiophene-2-carboxamide], the AC50 in experiment [1] and in experiment [2] was greater than 10 µM each time. Further, the IC50 in experiment [3] is greater than 0.01 µM; in experiment [4] it was 0.1 to 1 µM; in experiment [5], greater than 0.01 µM.
As for `Cc1cn2cc(NC(=O)c3sc(N4CCC(NC(C)(C)C)C4)cc3F)cc(F)c2n1` (stereo not drawn) [Compound 137, 5-[3-(tert-butylamino)pyrrolidin-1-yl]-3-fluoro-N-[8-fluoro-2-methylimidazo[1,2-a]pyridin-6-yl]thiophene-2-carboxamide], the AC50 in experiment [1] and in experiment [2] was greater than 10 µM in each case. For the same compound, the IC50 in experiment [3] was greater than 0.01 µM; in experiment [4] it was greater than 0.01 µM; in experiment [5], 0.1 to 1 µM.
Consider `Cc1cn2cc(NC(=O)c3sc(N4CCC(N(C)C)C4)cc3F)cc(F)c2n1` (stereo not drawn) [Compound 138, 5-[3-(dimethylamino)pyrrolidin-1-yl]-3-fluoro-N-[8-fluoro-2-methylimidazo[1,2-a]pyridin-6-yl]thiophene-2-carboxamide], for which the results for the AC50 in experiment [1] and in experiment [2] were greater than 10 µM and 1 to 10 µM, respectively. Besides, the figures for the IC50 in experiment [3], in experiment [4] and in experiment [5] were 1 to 10 µM, 0.1 to 1 µM and greater than 0.01 µM, respectively.
As for `Cc1cn2cc(NC(=O)c3sc(N4CCN5CCCC5C4)cc3F)cc(F)c2n1` (stereo not drawn) [Compound 139, 3-fluoro-N-[8-fluoro-2-methylimidazo[1,2-a]pyridin-6-yl]-5-[hexahydro-1H-pyrrolo[1,2-a]pyrazin-2-yl] thiophene-2-carboxamide], the AC50 in experiment [1] and in experiment [2] was greater than 10 µM each time. Besides, the IC50 in experiment [3] was greater than 0.01 µM; in experiment [4], 1 to 10 µM; in experiment [5], greater than 0.01 µM.
With `Cc1cn2cc(NC(=O)c3sc(N4CCC(NC(C)(C)C)CC4)cc3F)cc(F)c2n1` [Compound 141, 5-[4-(tert-butylamino)piperidin-1-yl]-3-fluoro-N-[8-fluoro-2-methylimidazo[1,2-a]pyridin-6-yl]thiophene-2-carboxamide], the AC50 in experiment [1] and in experiment [2] was greater than 10 µM each time. The IC50 in experiment [3] was greater than 0.01 µM; in experiment [4] it was 1 to 10 µM; in experiment [5], greater than 0.01 µM.
Regarding `CCNC1CCN(c2cc(F)c(C(=O)Nc3cc(F)c4nc(C)cn4c3)s2)CC1` [Compound 142, 5-[4-(ethylamino)piperidin-1-yl]-3-fluoro-N-[8-fluoro-2-methylimidazo [1,2-a]pyridin-6-yl]thiophene-2-carboxamide], the AC50 in experiment [1] and in experiment [2] was 1 to 10 µM in each case. In addition, the IC50 in experiment [3], in experiment [4] and in experiment [5] was 1 to 10 µM throughout.
As to `Cc1cn2cc(NC(=O)c3sc(N4C[C@H]5CC[C@@H](C4)N5)cc3F)cc(F)c2n1` [Compound 143, 5-[(1R,5S)-3,8-diazabicyclo[3.2.1]octan-3-yl]-3-fluoro-N-[8-fluoro-2-methylimidazo[1,2-a]pyridin-6-yl]thiophene-2-carboxamide], the AC50 in experiment [1] and in experiment [2] was greater than 10 µM each time. In addition, the IC50 in experiment [3] is greater than 0.01 µM; in experiment [4], 1 to 10 µM; in experiment [5], 1 to 10 µM.
As for `Cc1cn2cc(NC(=O)c3sc(C4CCN(C)CC4)cc3F)cc(F)c2n1` [Compound 145, 3-fluoro-N-[8-fluoro-2-methylimidazo [1,2-a]pyridin-6-yl]-5-(1-methylpiperidin-4-yl)thiophene-2-carboxamide], the AC50 in experiment [1] and in experiment [2] was 1 to 10 µM in each case. Also, the IC50 in experiment [3] was 1 to 10 µM; in experiment [4] it was 0.1 to 1 µM; in experiment [5], 1 to 10 µM.
On to `CCN1CCC(c2cc(F)c(C(=O)Nc3cc(F)c4nc(C)cn4c3)s2)CC1` [Compound 146, 5-(1-ethylpiperidin-4-yl)-3-fluoro-N-[8-fluoro-2-methylimidazo[1,2-a]pyridin-6-yl]thiophene-2-carboxamide], for which the AC50 in experiment [1] and in experiment [2] was 1 to 10 µM in each case. In addition, the IC50 in experiment [3] is 1 to 10 µM; in experiment [4] it was 0.1 to 1 µM; in experiment [5] it was less than 0.1 µM.
With `Cc1cn2cc(NC(=O)c3sc(C4C[C@@H](C)N[C@@H](C)C4)cc3F)cc(F)c2n1` (stereo partly drawn) [Compound 147, 5-[(2R,6S)-2,6-dimethylpiperidin-4-yl]-3-fluoro-N-[8-fluoro-2-methylimidazo[1,2-a]pyridin-6-yl]thiophene-2-carboxamide], the AC50 in experiment [1] lay in the range of 1 to 10 µM; in experiment [2] it was 0.1 to 1 µM. Besides, the values for the IC50 in experiment [3], in experiment [4] and in experiment [5] were 0.1 to 1 µM, less than 0.1 µM and 1 to 10 µM, respectively.
In the case of `Cc1cn2cc(NC(=O)c3sc(N(C)C4CC(C)(C)NC(C)(C)C4)cc3F)cc(F)c2n1` [Compound 149, 3-fluoro-N-[8-fluoro-2-methylimidazo[1,2-a]pyridin-6-yl]-5-[methyl(2,2,6,6-tetramethylpiperidin-4-yl)amino]thiophene-2-carboxamide], the AC50 in experiment [1] and in experiment [2] was greater than 10 µM throughout. For the same compound, the IC50 is greater than 0.01 µM in experiment [3], 0.1 to 1 µM in experiment [4] and greater than 0.01 µM in experiment [5].
Turning to `Cc1cn2cc(NC(=O)c3sc(N(C)C4CCN(C)CC4)cc3F)cc(F)c2n1` [Compound 150, 3-fluoro-N-[8-fluoro-2-methylimidazo[1,2-a]pyridin-6-yl]-5-[methyl(1-methylpiperidin-4-yl)amino]thiophene-2-carboxamide], the AC50 in experiment [1] was greater than 10 µM; in experiment [2], 1 to 10 µM. The half-maximal inhibitory concentration (IC50) in experiment [3], in experiment [4] and in experiment [5] was 1 to 10 µM each time.
Take `CC1CN(c2cc(F)c(C(=O)Nc3ccc4cn(C)nc4c3)s2)CCN1` (stereo not drawn) [Compound 162, 3-fluoro-N-(2-methylindazol-6-yl)-5-(3-methylpiperazin-1-yl)thiophene-2-carboxamide]: the AC50 in experiment [1] and in experiment [2] was greater than 10 µM in each case. Besides, the IC50 in experiment [3], in experiment [4] and in experiment [5] was greater than 0.01 µM throughout.
In the case of `CC1CN(c2cc(F)c(C(=O)Nc3cc(F)c4cn(C)nc4c3)s2)CCN1` (stereo not drawn) [Compound 163, 3-fluoro-N-(4-fluoro-2-methylindazol-6-yl)-5-(3-methylpiperazin-1-yl)thiophene-2-carboxamide], the AC50 in experiment [1] and in experiment [2] was greater than 10 µM throughout. The results for the IC50 in experiment [3], in experiment [4] and in experiment [5] were greater than 0.01 µM, greater than 0.01 µM and less than 0.1 µM, respectively.
With `Cc1nc2c(F)cc(NC(=O)c3sc(N4CCNC(C)C4)cc3F)cc2o1` (stereo not drawn) [Compound 164, 3-fluoro-N-(4-fluoro-2-methyl-1,3-benzoxazol-6-yl)-5-(3-methylpiperazin-1-yl)thiophene-2-carboxamide], the half-maximal activity concentration (AC50) in experiment [1] and in experiment [2] was 1 to 10 µM in each case. Moreover, the IC50 in experiment [3] is 1 to 10 µM; in experiment [4], 0.1 to 1 µM; in experiment [5] it was 0.1 to 1 µM.

The AC50 is the concentration giving half of the maximal activity seen. Read a low AC50 as activity at low concentration. What is called IC50 is the midpoint of a concentration-inhibition curve.
